Data on one compound can be found in US6627732B1, “Glutathione derivatives and their dosage forms” (Teijin Limited, priority 1998, dated 2003).

Data set [1] can be described thus: Fat emulsion: particle distribution and content after 1.2 μm filtration (Examples 17, 18). It counts as physicochemical. The note with it: final concentration about 1 mg/ml. On the procedure:
Preparation of the fat emulsion having as an active ingredient the glutathione derivative of Example 4 was carried out using a high-pressure injection type homogenizer.
(1) The high-pressure injection type homogenizer used was Nanomizer LA from Nanomizer K.K. Purified yolk lecithin, purified soybean oil, and glycerin used were those that can be intravenously injected.
(2) Purified yolk lecithin 6 g and purified soybean oil 55 g were mixed by a mixer while heating to homogeneity. To this was added 560 mg of the glutathione derivative of Example 4 and was further stirred to homogeneity. A suitable amount of glycerin and water for injection were added and rough-emulsified by a mixer, and pH was adjusted to 7.4 with an aqueous solution of sodium hydroxide. Water was further added to a total amount of 560 g, which was pure-emulsified using the Nanomizer LA at an emulsification pressure of 550 kgf/cm^2 by passing it through the emulsion part for 11 times. […]
When the emulsion was crushed with tetrahydrofuran before and after filtration with a 1.2 μm filter and the content of the glutathione derivative of Example 4 was measured by HPLC, it was confirmed that the content of 90% or more of that before filtration was retained, homogeneity was good, and the glutathione derivative of Example 4 was stably mixed in the oil phase emulsion particles. […]

For another data set, the system named is HL-60 cells. In words: HL-60 cell differentiation induction, NBT reducing activity, DMSO as solvent (Example 21). It is filed as cell-based, human. The text has this: In a manner similar to that in Example 20, the in vitro activity of the glutathione derivatives of Examples 4, 5, and 8, and Comparative Example 3 were compared.
(1) The differences from Example 20 were: First, since the glutathione derivatives of Examples and Comparative Examples used dimethyl sulfoxide (DMSO) as the solvent because of the solubility of the compounds, the system contained 0.1-0.3 (v/v)% DMSO instead of ethanol. […] This caused slight differences in the sensitivity in the test results of the glutathione derivative of Example 4. Furthermore, in Example 21, the differentiation induction on HL-60 cells into granulocytic cells in the coexistence of 9-cis-RA was only evaluated.

For a further data set, the system named is TNFα. The data set can be described thus: Plasma level of TNFα in normal healthy rats (ELISA). The note with it: fat emulsion 20 mg/kg-body weight/day, days 3, 5 and 7. It is filed as in vivo, rat. The text has this: , plasma obtained form the EDTA-2K-treated blood on days 3, 5, and 7 of the experiment was used to determine plasma levels of interleukin 1β (hereinafter referred to as IL-1β) and tumor necrosis factor (hereinafter referred to as TNFα). For the determination, the rat IL-1β-ELISA system (manufactured by Amersham Pharmacia Biotek Co., Ltd.), the rat TNFα-ELISA system (manufactured by Amersham Pharmacia Biotek Co., Ltd.), and the BioRad microplate reader (MODEL550, Nippon BioRad laboratories, Co., Ltd.).
(In an ELISA, binding on a coated surface is turned into a signal by an enzyme label.)

Regarding `CCCCCCCCCCCCCCCCOC(=O)[C@@H](N)CCC(=O)N[C@@H](CSCc1ccccc1)C(=O)N[C@@H](C(=O)OCC)c1ccccc1.Cl` [Example 4, Glu(Cys(Bzl)-D-Phg-OEt)-O(Hexadecyl)hydrochloride], in data set [1] (alcohol solution mixed with water for injection), the “Content after filtration with a 1.2 μm filter” value was not above 75%. For the same compound, the “Behaviour on mixing alcohol solution with water for injection” value in data set [1] is reported as “immediately crystallized”. In addition, the “Differentiation induction activity compared with Comparative Example 3” value in the data set with HL-60 cells (HL-60, coexistence of 9-cis-RA) is reported as “activity higher than that of Comparative Example 3”. Moreover, the “Ratio of NBT reduction activity-positive cells” value in the data set on HL-60 cells (compound 3 × 10^−6 M in DMSO, Solvent control (EtOH - 0.1%)) stood at 0.6%; in the data set on HL-60 cells (compound 3 × 10^−6 M in DMSO, with 9-cis-RA (5 × 10^−9 M)), 29.9%; in the data set with HL-60 cells (compound 3 × 10^−7 M in DMSO, Solvent control (EtOH - 0.1%)), 0.9%; in the data set on HL-60 cells (compound 3 × 10^−7 M in DMSO, with 9-cis-RA (5 × 10^−9 M)), 11.0%; in the data set on HL-60 cells (compound 3 × 10^−8 M in DMSO, Solvent control (EtOH - 0.1%)) it was 0.7%; in the data set with HL-60 cells (compound 3 × 10^−8 M in DMSO, with 9-cis-RA (5 × 10^−9 M)), 3.1%. The “Ratio of NBT reduction activity-positive cells” value was 0.3% in the data set with HL-60 cells (compound 10^−6 M in DMSO, Solvent control (EtOH - 0.1%)); 21.2% in the data set with HL-60 cells (compound 10^−6 M in DMSO, with 9-cis-RA (5 × 10^−9 M)); 0.7% with HL-60 cells (compound 10^−7 M in DMSO, Solvent control (EtOH - 0.1%)); 5.6% with HL-60 cells (compound 10^−7 M in DMSO, with 9-cis-RA (5 × 10^−9 M)); 0.6% with HL-60 cells (compound 10^−8 M in DMSO, Solvent control (EtOH - 0.1%)); 2.5% in the data set with HL-60 cells (compound 10^−8 M in DMSO, with 9-cis-RA (5 × 10^−9 M)). For the same compound, the “Plasma level of TNFα relative to the negative control group” value in the data set with TNFα was “No increases”.
